Measured values reported in US6274715A, “Tricyclic erythromycin derivatives” (priority 1997, dated 2001).
Converted amounts (≈) assume the structure as drawn.

Columns and labels:
[1] = tested on: STAPHYLOCOCCUS AUREUS ATCC 6538P; experiment: In vitro antibacterial activity, MIC, BHI agar dilution; type: cell-based; details: S. aureus ATCC 6538P, 35-37° C., 20 to 24 hours, unit assumed
[2] = tested on: STAPHYLOCOCCUS AUREUS A5177; experiment: as above; type: cell-based; details: S. aureus A5177, unit assumed
[3] = tested on: STAPHYLOCOCCUS AUREUS A-5278; experiment: as above; type: cell-based; details: S. aureus A-5278, unit assumed
[4] = tested on: STAPHYLOCOCCUS AUREUS CMX 642A; experiment: as above; type: cell-based; details: S. aureus CMX 642A, unit assumed
[5] = tested on: STAPHYLOCOCCUS AUREUS NCTC10649M; experiment: as above; type: cell-based; details: S. aureus NCTC10649M, unit assumed
[6] = tested on: STAPHYLOCOCCUS AUREUS CMX 553; experiment: as above; type: cell-based; details: S. aureus CMX 553, unit assumed
[7] = tested on: STAPHYLOCOCCUS AUREUS 1775; experiment: as above; type: cell-based; details: S. aureus 1775, unit assumed
[8] = tested on: STAPHYLOCOCCUS EPIDERMIDIS 3519; type: cell-based; details: S. epidermidis 3519; BHI agar; unit assumed
[9] = tested on: EN[…] ATCC 8043; experiment: In vitro antibacterial activity, MIC, BHI agar dilution; type: cell-based; details: E. faecium ATCC 8043, unit assumed
Outline: (§1)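 BHI agar dilution: twelve plates with successive compound dilutions, inoculated by replicator with 1:100 culture dilutions (1:10 for slow growers such as Micrococcus and Streptococcus), 20 to 24 hours at 35-37° C. MIC was the lowest concentration giving no growth, slight haze or sparse isolated colonies versus drug-free control; erythromycin A as class reference.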

[10] = tested on: M[…] ATCC 4698; experiment: as above; type: cell-based; details: M. luteus ATCC 4698, unit assumed
Outline: as §1

[11] = tested on: M[…] ATCC 9341; experiment: as above; type: cell-based; details: M. luteus ATCC 9341, unit assumed
Outline: as §1

[12] = tested on: STR[…] 508; experiment: as above; type: cell-based; details: S. agalactiae CMX 508, unit assumed
Outline: as §1

[13] = tested on: STREPTOCOCCUS BOVIS A-5169; experiment: as above; type: cell-based; details: S. bovis A-5169, unit assumed
[14] = tested on: STREPTOCOCCUS PYOGENES EES61; experiment: as above; type: cell-based; details: S. pyogenes EES61, unit assumed
[15] = tested on: STREPTOCOCCUS PYOGENES 930; experiment: as above; type: cell-based; details: S. pyogenes 930, unit assumed
[16] = tested on: STREPTOCOCCUS PYOGENES PIU 2548; experiment: as above; type: cell-based; details: S. pyogenes PIU 2548, unit assumed
[17] = tested on: ESCHERICHIA COLI JUHL; type: cell-based; details: E. coli JUHL; BHI agar; unit assumed
[18] = tested on: ESCHERICHIA COLI SS; experiment: In vitro antibacterial activity, MIC, BHI agar dilution; type: cell-based; details: E. coli SS, unit assumed
[19] = tested on: ESCHERICHIA COLI DC-2; experiment: as above; type: cell-based; details: E. coli DC-2, unit assumed
[20] = tested on: ESCHERICHIA COLI H560; experiment: as above; type: cell-based; details: E. coli H560, unit assumed
[21] = tested on: ESCHERICHIA COLI KNK 437; type: cell-based; details: E. coli KNK 437; BHI agar; unit assumed
[22] = tested on: ENTEROBACTER AEROGENES ATCC 13048; experiment: In vitro antibacterial activity, MIC, BHI agar dilution; type: cell-based; details: E. aerogenes ATCC 13048, unit assumed
[23] = tested on: KLEBSIELLA PNEUMONIAE ATCC 8045; experiment: as above; type: cell-based; details: K. pneumoniae ATCC 8045, unit assumed
[24] = tested on: PROVIDENCIA STUARTII CMX 640; type: cell-based; details: P. stuartii CMX 640; BHI agar; unit assumed
[25] = tested on: PSEUDOMONAS AERUGINOSA BMH10; experiment: In vitro antibacterial activity, MIC, BHI agar dilution; type: cell-based; details: P. aeruginosa BMH10, unit assumed
[26] = tested on: PSEUDOMONAS AERUGINOSA 5007; experiment: as above; type: cell-based; details: P. aeruginosa 5007, unit assumed
[27] = tested on: PSEUDOMONAS AERUGINOSA K799/WT; experiment: as above; type: cell-based; details: P. aeruginosa K799/WT, unit assumed
[28] = tested on: PSEUDOMONAS AERUGINOSA K799/61; experiment: as above; type: cell-based; details: P. aeruginosa K799/61, unit assumed
[29] = tested on: PSEUDOMONAS CEPACIA 296I; experiment: as above; type: cell-based; details: P. cepacia 296I, unit assumed
[30] = tested on: PSEUDOMONAS AERUGINOSA DPHD-5263; experiment: as above; type: cell-based; details: P. aeruginosa DPHD-5263, unit assumed
[31] = tested on: PSEUDOMONAS AERUGINOSA DPHD-2862; experiment: as above; type: cell-based; details: P. aeruginosa DPHD-2862, unit assumed
[32] = tested on: CANDIDA ALBICANS CCH 442; experiment: as above; type: cell-based; details: C. albicans CCH 442, unit assumed
[33] = tested on: MYCOBACTERIUM SMEGMATIS ATCC 114; experiment: as above; type: cell-based; details: M. smegmatis ATCC 114, unit assumed
[34] = tested on: H. Influenza Dill AMP R; experiment: In vitro antibacterial activity against H. Influenza Dill AMP R, MIC; type: cell-based; details: separate assay, unit assumed
Outline: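 Agar dilution in Brain Heart Infusion agar, twelve successive compound dilutions, inoculated by Steers replicator with 1:100 (1:10 for slow growers) culture dilutions. Incubation 35-37° C. for 20 to 24 hours; MIC is lowest concentration giving no growth, slight haze or sparse colonies versus drug-free control.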

[35] = tested on: Grarn-negative bacteria; details: background statement; cited from earlier work

CC[C@H]1OC(=O)[C@H](C)[C@@H](O[C@H]2C[C@@](C)(OC)[C@@H](O)[C@H](C)O2)[C@H](C)[C@@H](O[C@@H]2O[C@H](C)C[C@H](N(C)C)[C@H]2O)[C@](C)(O)C[C@@H](C)C(=O)[C@H](C)[C@@H](O)[C@]1(C)O [Ery A, Erythromycin A, reference compound]
MIC [1]: 0.2 µg/mL (≈ 0.273 µM)
MIC [2]: 6.2 µg/mL (≈ 8.45 µM)
MIC [3]: > 100 µg/mL
MIC [4]: 0.39 µg/mL (≈ 0.531 µM)
MIC [5]: 0.2 µg/mL (≈ 0.273 µM)
MIC [6]: 0.2 µg/mL (≈ 0.273 µM)
MIC [7]: > 100 µg/mL
MIC [8]: 0.39 µg/mL (≈ 0.531 µM)
MIC [9]: 0.05 µg/mL (≈ 0.0681 µM)
MIC [10]: 0.2 µg/mL (≈ 0.273 µM)
MIC [11]: 0.02 µg/mL (≈ 0.0273 µM)
MIC [12]: 0.05 µg/mL (≈ 0.0681 µM)
MIC [13]: 0.05 µg/mL (≈ 0.0681 µM)
MIC [14]: 0.05 µg/mL (≈ 0.0681 µM)
MIC [15]: > 100 µg/mL
MIC [16]: 6.2 µg/mL (≈ 8.45 µM)
MIC [17]: 100 µg/mL (≈ 136 µM)
MIC [18]: 0.2 µg/mL (≈ 0.273 µM)
MIC [19]: > 100 µg/mL
MIC [20]: 25 µg/mL (≈ 34.1 µM)
MIC [21]: 50 µg/mL (≈ 68.1 µM)
MIC [22]: 100 µg/mL (≈ 136 µM)
MIC [23]: 100 µg/mL (≈ 136 µM)
MIC [24]: > 100 µg/mL
MIC [25]: > 100 µg/mL
MIC [26]: > 100 µg/mL
MIC [27]: 50 µg/mL (≈ 68.1 µM)
MIC [28]: 0.78 µg/mL (≈ 1.06 µM)
MIC [29]: > 100 µg/mL
MIC [30]: > 100 µg/mL
MIC [31]: > 100 µg/mL
MIC [32]: > 100 µg/mL
MIC [33]: 0.02 µg/mL (≈ 0.0273 µM)
MIC [34]: 4 µg/mL (≈ 5.45 µM)
activity against Gram-negative bacteria [35]: only weak activity
